From paper PMC11946789, “Two Amino Acid Substitutions Improve the Pharmacological Profile of the Snake Venom Peptide Mambalgin” (Toxins, 2025)
Bridges are numbered along the chain shown (N, C = ends). Where no end group is shown, it is not given here.

Columns and labels:
[1] = tested on: heteromeric rat ASIC1a/3 channels (rASIC1a/3); assay: TEVC recordings, heteromeric rASIC1a/3; assay type: cell-based; settings: for inhibition of rASIC1a/3: 100 nM, pH 5.5 stimulus, conditioning pH 7.4, % of control currents, n = 5, p < 0.05 Mamb-AL vs Mamb, unpaired t-test
From the text: Figure 4 The inhibitory effect of Mamb-AL on other ASIC1-containing channels exceeds that of Mamb. (A,C) Representative current traces showing the effects of various concentrations of Mamb (left panels) and Mamb-AL (right panels) on homomeric rat ASIC1b (rASIC1b) (A) and heteromeric rat ASIC1a/3 (rASIC1a/3) channels (C). Currents were evoked by a pH 5.5 stimulus following a conditioning pH of 7.4, with peptides applied for 30 s prior to the pH stimulus. (B) Dose–response curves for the inhibitory effects of Mamb and Mamb-AL on rASIC1b. Each data point represents measurements from 5 to 7 cells. (D) Bar graph quantifying the inhibitory effects of Mamb and Mamb-AL on rASIC1a/3, shown as a percentage of the corresponding control currents (n = 5). Data are presented as mean ± SEM; * p< 0.05, unpaired t-test. […] Data are shown as mean ± SEM; ns indicates no significant difference vs. control (dotted horizontal line), paired t-test.
Female X.laevis frogs were anesthetized with 0.17% ethyl 3-amino-benzoate methane sulfonate (MS222). A small ovarian section was surgically removed via an abdominal incision and placed in ND96 medium (96 mM NaCl, 2 mM KCl, 1.8 mM CaCl2, 1 mM MgCl2, and 5 mM HEPES, pH 7.4, adjusted with NaOH). […] Each animal underwent surgeries at intervals of no less than three months. Connective tissue and follicular sheaths were removed by incubating ovarian tissue in calcium-free ND96 medium containing collagenase (1 mg/mL) for 2 h at 21 °C. Healthy, mature stage IV and V oocytes were selected and stored in ND96 medium. […]
(§1) Whole-cell ASIC currents were measured using the two-electrode voltage clamp (TEVC) method with a GeneClamp 500 amplifier (Axon Instruments, Union City, NJ, USA). […]
(§2) Electrophysiological and behavioral data were analyzed using OriginPro 8.6.0 (OriginLab, Washington, DC, USA). […] Statistical significance between the Mamb and Mamb-AL groups was determined using an unpaired t-test. […]

[2] = tested on: homomeric rat ASIC3 channels; assay: TEVC recordings, homomeric ASIC3; assay type: cell-based; settings: pH stimulus; n = 5; ns vs control, paired t-test
From the text: Figure 4 The inhibitory effect of Mamb-AL on other ASIC1-containing channels exceeds that of Mamb. (A,C) Representative current traces showing the effects of various concentrations of Mamb (left panels) and Mamb-AL (right panels) on homomeric rat ASIC1b (rASIC1b) (A) and heteromeric rat ASIC1a/3 (rASIC1a/3) channels (C). Currents were evoked by a pH 5.5 stimulus following a conditioning pH of 7.4, with peptides applied for 30 s prior to the pH stimulus. (B) Dose–response curves for the inhibitory effects of Mamb and Mamb-AL on rASIC1b. Each data point represents measurements from 5 to 7 cells. (D) Bar graph quantifying the inhibitory effects of Mamb and Mamb-AL on rASIC1a/3, shown as a percentage of the corresponding control currents (n = 5). Data are presented as mean ± SEM; * p< 0.05, unpaired t-test. […] Data are shown as mean ± SEM; ns indicates no significant difference vs. control (dotted horizontal line), paired t-test. […]
as §1, §2

[3] = tested on: acetic acid-induced writhes; assay: Acetic acid-induced writhing pain test; assay type: in vivo, male ICR mice; settings: for decrease in number of writhes: 90 min before i.p. 0.6% acetic acid, 15 min, n = 8, vs saline control (41 ± 8 writhes); for number of writhes (result in words): 0.01 and 0.1 mg/kg, 90 min prior to testing
From the text: ASIC channels play a critical role in the perception of acid-induced pain [8, 38]. As effective inhibitors of ASIC1-containing channels, Mamb and Mamb-AL could serve as potential therapeutics for this type of pathology. To evaluate this hypothesis, we employed the acetic acid-induced writhing test as an in vivo model of acute pain. In this model, intraperitoneal administration of 0.6% acetic acid provokes a stereotypical behavior in mice characterized by abdominal contractions (acetic acid-induced writhes).
Figure 5 Analgesic effect of peptides Mamb and Mamb-AL in an acute pain model. Peptides were administered intramuscularly 90 min before testing. Their efficacy was assessed using the acetic acid-induced writhing test, where the number of writhes was counted after intraperitoneal administration of 0.6% acetic acid. Results are presented as mean ± SD (n = 8 for each group). Statistical analysis was performed using one-way ANOVA followed by Dunnett’s post hoc test. * p< 0.05, ** p< 0.01, *** p< 0.005, **** p< 0.001 indicate significant differences compared with the control group, and ns indicates no significant difference.
The number of writhes in the control group treated with saline was 41 ± 8. Administration of wild-type peptide at doses of 0.01 and 0.1 mg/kg decreased the number of writhes by approximately 29% and 27%, respectively.
Adult (8–10 weeks) male ICR mice (25–30 g, Animal Breeding Facility Branch of the Shemyakin–Ovchinnikov Institute of Bioorganic Chemistry, Russian Academy of Sciences, Pushchino, Russia) were housed in Type 3 standard polycarbonate cages (820 cm^2) with LIGNOCEL BK 8/15 bedding (JRS, Rosenberg, Germany) under controlled conditions (23 ± 2 °C, 12h light–dark cycle) with ad libitum access to food and water. Test substances were dissolved in saline and administered intramuscularly 90 min before testing. The visceral pain assay was performed as described by. Distinct groups (n = 8 for each group) of mice were administered with 0.6% acetic acid in saline intraperitoneally (i.p.). Writhing behavior was recorded for 15 min after the mice were placed in transparent glass cylinders. A blinded observer assessed the responses. No formal power analysis was performed prior to the experiments, as the effect size and variability of the peptide treatment were unknown. However, because the initial results were highly significant, no additional animals were used. No animals were excluded from the analysis. Peptides (Mamb and Mamb-AL) were compared with a saline control group using analysis of variance (ANOVA) with post hoc Dunnett’s test. Data are presented as mean ± standard deviation (SD).

Sequence | inhibition of rASIC1a/3 [1] | effect on rat ASIC3 channels [2] | decrease in number of writhes ([3]; 0.01 mg/kg intramuscular) | decrease in number of writhes ([3]; 0.1 mg/kg intramuscular) | number of writhes (result in words) [3] | increase in inhibition of heteromeric ASIC1a/3 channels ([1]; compared with Mamb) | analgesic effect relative to wild-type Mamb ([3]; 0.01 and 0.1 mg/kg intramuscular)
LKCFQHGKVVTCHRDMKFCYHNTGMPFRNLKLILQGCSSSCSETENNKCCSTDRCNK (disulfide 3-19, 12-37, 41-49, 50-55 (inferred)) [Mamb] | 13% | neither wild-type Mamb nor Mamb-AL exhibited any detectable effects | approximately 29% | ~27% | significantly reduced the number of writhes | – | –
LKCYQHGKVVTCHRDAKFCYHNTGLPFRNLKLILQGCSSSCSETENNKCCSTDRCNK (disulfide 3-19, 12-37, 41-49, 50-55 (inferred)) [Mamb-AL] | 32% | neither wild-type Mamb nor Mamb-AL exhibited any detectable effects | ~ 41% | ~ 34% | significantly reduced the number of writhes | two-fold increase | trend toward a stronger analgesic effect than the wild-type Mamb
